Measurements as given in patent US20250127700A1, “METHODS OF TREATING HYPERPIGMENTATION DISORDERS” (DermBiont, Inc., priority 2016, published 2025).
“Also recorded” adds a separate entry of the source.

What was measured:
C47 BI/6 mice = assay: Lightening of regrowing hair pigmentation in depilated mice, topical application; format: in vivo; conditions: 4% HQ; for Average gray value within the hair shafts, awl hairs / Average gray value within the hair shafts, zig-zag hairs: topical daily for 19 days after depilation, scale 0 (white) to 255 (black); for Average gray value within the hair shafts, awl hairs: 100 μm (0.0057%) Bis or ruboxistaurin in DMSO:propylene glycol, control value 181; for Maximum degree of hair lightening, zig-zag hairs below versus above the median gray value: zig-zag (small) hairs, FIG. 3, 0.0057% ruboxistaurin; for Color of zig-zag hairs compared to vehicle control (micrograph): FIG. 1, 100 μm Bis or ruboxistaurin; for Average gray value within the hair shafts, zig-zag hairs: 100 μm (0.0057%) Bis or ruboxistaurin, control 159
From the text: Briefly, […] mice aged 8-9 weeks (3 per group) were depilated to remove back hairs. These mice have black hair but no melanin pigmentation in the skin. Melanocytes in the hair follicle are responsible for the coat color. […] All compounds and vehicle were applied daily to the depilated areas for 19 days after depilation, i.e. throughout the period during which the new hair shafts are produced following depilation. Representative hairs of each type: guard, awl (large follicles deep in the dermis or subcutaneous follicle), auchene, and zig-zag (smaller follicles set in the more superficial dermis and the most numerous type of coat hairs), were randomly plucked (50/mouse) and photographed under a dissecting microscope. For separate analysis, 20 dark and light hairs from each mouse were subjected to computer assisted analysis of “gray value” for the pixels comprising the hair shaft.
Average gray value within the hair shafts were determined using ImageJ (NIH) software. The gray value is the sum of the gray values of all the pixels in the hair shaft divided by the number of pixels; and values range from 0 (white, no pigment) to 255 (black).
To determine the maximum degree of hair lightening (attributable to maximal drug exposure), an additional comparison was made between zig-zag hairs in each group that fell below versus above the median gray value.

Solubility statement = format: physicochemical
PKC isoform η = PKC isoform η (Homo sapiens, UniProt P24723); conditions: Jirousek et al. J Med Chem 1996; cited from earlier work
Chain of PKC isoform η (P24723 whole entry, canonical isoform): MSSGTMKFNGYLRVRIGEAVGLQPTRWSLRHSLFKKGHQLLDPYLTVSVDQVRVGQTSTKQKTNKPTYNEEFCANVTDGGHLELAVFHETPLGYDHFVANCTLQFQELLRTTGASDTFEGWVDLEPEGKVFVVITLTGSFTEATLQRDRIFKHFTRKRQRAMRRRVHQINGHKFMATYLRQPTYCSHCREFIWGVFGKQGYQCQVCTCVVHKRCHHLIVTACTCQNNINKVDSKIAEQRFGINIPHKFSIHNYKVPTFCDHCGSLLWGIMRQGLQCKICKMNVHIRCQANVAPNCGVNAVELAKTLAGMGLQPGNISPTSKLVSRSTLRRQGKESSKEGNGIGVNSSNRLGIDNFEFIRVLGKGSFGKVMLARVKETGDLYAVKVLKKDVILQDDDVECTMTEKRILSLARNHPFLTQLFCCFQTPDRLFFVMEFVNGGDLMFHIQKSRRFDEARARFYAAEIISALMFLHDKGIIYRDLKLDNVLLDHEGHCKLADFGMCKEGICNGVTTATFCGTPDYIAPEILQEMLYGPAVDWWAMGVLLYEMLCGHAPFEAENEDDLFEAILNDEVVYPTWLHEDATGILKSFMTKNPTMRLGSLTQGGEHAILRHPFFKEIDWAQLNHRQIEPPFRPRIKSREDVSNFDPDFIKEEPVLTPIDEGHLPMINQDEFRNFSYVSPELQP

PKC isoform γ = PKC isoform γ (Homo sapiens, UniProt P05129); conditions: Jirousek et al. J Med Chem 1996; cited from earlier work

| Solubility (Solubility statement) | SMILES | Average gray value within the hair shafts, awl hairs (C47 BI/6 mice) | Maximum degree of hair lightening, zig-zag hairs below versus above the median gray value (C47 BI/6 mice) | Color of zig-zag hairs compared to vehicle control (micrograph) (C47 BI/6 mice) | Average gray value within the hair shafts, zig-zag hairs (C47 BI/6 mice) | IC50 (PKC isoform η) [nM] | IC50 (PKC isoform γ) [nM] |
| --- | --- | --- | --- | --- | --- | --- | --- |
|  | Oc1ccc(O)cc1 [HQ, hydroquinone] | 168 | minimally lighter than control hairs | minimal color difference | 156 |  |  |
| poorly soluble | CN(C)CC1CCn2cc(c3ccccc32)C2=C(C(=O)NC2=O)c2cn(c3ccccc23)CCO1 (centres unmarked) [ruboxistaurin, 9-[(dimethylamino)methyl]-6,7,10,11-tetrahydro-9H,18H-5,21:12,17-di(metheno)dibenzo[e,k]pyrrolo[3,4-h][1,2,13]oxadiazacyclohexadecine-18,20-dione] | 155 | lighter than both control and 4% HQ hairs | significantly lighter; also recorded: lightest | 134 | 52 | 300 |
